According to patent US20170269060A1, “Assays and Compounds to Treat Kidney Diseases” (Rush University Medical Center, priority 2014, published 2017):

Biological target: T1, β1 integrin (Mus musculus, UniProt P09055)
T1 construct: we quantified the level of β1 in treated cells; endogenous in cells; host or cells: conditionally immortalized murine podocytes (from mouse line H-2Kb-tsA58)
Experiment: β1 integrin and active β1 integrin levels (antibody 9EG7) in PAN-treated murine podocytes
Assay type: cell-based
From the text: FIG. 9A-9E. An An β1-integrin agonist pyrintegrin (pyr) protects podocytes from damage. (A) The published chemical structure of pyr. (Xu et al. PNAS, 2010.) (B-D) Pyr protects podocytes from PAN-induced loss of F-actin fibers and focal adhesions and enhances active β1-integrin levels. (B) Graphs showing the effect of pyr on the number of F-actin fibers per cell and the number of vinculin spots per cell under each treatment condition. Data shown are means 6 SEMs per cell from three replicate wells (n=500-1000 cells per well). **P, 0.01; ***P, 0.001; ****P, 0.001. (C) Representative fluorescence images of murine podocytes after various treatments and after staining with phalloidin and antiactive β1 antibody. Two-color costained images show cells stained with phalloidin (red) and anti-active β1 antibody 9EG7 (green). Images were acquired using the Opera HCS System. […] Data shown are means±SEMs per cell from four to five replicate wells (n=500-1000 cells per well). Scale bar, 50 μm. *P, 0.01; **P, 0.001. (D) Representative fluorescence images of human podocytes after various treatments as shown. Images show cells stained with phalloidin (red) and anti-active β1-integrin antibody 12G10 (green). Images were acquired using the Opera HCS System. […] Data shown are medians±SEMs per cell from four to five replicate wells (n=500-1000 cells per well). Scale bar, 50 μm. **P, 0.01; ***P, 0.001. (E) Pyr reduces injury-mediated increase in podocyte migration in a scratch wound-healing assay. Representative images (left panel) and a bar graph (right panel) showing confocal microscopy-based quantitation of the number of migrating podocytes in a scratch wound-healing assay Lines represent the wound margins at the beginning of the experiment (0 hours). The data presented in the graph are plotted as means±SEMs (n≧15). C, control. Scale bar, 50 μm. **P<0.01; ****P<0.001.
FIG. 16. […] The cellular damage was assessed after staining the cells with phalloidin, anti-paxillin and anti-integrin β1 antibodies and quantifying various cellular phenotypes using the HCS system. […]

T1 sequence (P09055 21-798): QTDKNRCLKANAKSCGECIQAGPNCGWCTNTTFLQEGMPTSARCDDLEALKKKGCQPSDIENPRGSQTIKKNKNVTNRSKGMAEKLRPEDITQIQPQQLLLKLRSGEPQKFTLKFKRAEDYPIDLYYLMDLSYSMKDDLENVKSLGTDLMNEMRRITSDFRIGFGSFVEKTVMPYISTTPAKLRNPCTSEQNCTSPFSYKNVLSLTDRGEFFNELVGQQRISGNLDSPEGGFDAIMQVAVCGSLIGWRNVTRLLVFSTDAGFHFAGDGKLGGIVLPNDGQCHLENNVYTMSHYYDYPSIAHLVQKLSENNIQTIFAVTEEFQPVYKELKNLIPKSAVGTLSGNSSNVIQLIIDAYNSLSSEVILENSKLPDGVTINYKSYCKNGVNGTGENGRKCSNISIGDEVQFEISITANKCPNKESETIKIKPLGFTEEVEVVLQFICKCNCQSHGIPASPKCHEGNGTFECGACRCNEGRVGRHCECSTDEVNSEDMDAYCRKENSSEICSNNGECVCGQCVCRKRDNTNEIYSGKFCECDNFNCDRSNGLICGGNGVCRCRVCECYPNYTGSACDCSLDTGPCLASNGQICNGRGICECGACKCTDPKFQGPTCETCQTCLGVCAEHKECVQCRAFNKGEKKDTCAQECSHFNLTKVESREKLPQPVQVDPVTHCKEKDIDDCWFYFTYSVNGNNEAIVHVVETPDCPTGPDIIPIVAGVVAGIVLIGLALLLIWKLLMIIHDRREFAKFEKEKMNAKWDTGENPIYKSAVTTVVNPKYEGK
T1 sequence (Q62470 33-1053 partner): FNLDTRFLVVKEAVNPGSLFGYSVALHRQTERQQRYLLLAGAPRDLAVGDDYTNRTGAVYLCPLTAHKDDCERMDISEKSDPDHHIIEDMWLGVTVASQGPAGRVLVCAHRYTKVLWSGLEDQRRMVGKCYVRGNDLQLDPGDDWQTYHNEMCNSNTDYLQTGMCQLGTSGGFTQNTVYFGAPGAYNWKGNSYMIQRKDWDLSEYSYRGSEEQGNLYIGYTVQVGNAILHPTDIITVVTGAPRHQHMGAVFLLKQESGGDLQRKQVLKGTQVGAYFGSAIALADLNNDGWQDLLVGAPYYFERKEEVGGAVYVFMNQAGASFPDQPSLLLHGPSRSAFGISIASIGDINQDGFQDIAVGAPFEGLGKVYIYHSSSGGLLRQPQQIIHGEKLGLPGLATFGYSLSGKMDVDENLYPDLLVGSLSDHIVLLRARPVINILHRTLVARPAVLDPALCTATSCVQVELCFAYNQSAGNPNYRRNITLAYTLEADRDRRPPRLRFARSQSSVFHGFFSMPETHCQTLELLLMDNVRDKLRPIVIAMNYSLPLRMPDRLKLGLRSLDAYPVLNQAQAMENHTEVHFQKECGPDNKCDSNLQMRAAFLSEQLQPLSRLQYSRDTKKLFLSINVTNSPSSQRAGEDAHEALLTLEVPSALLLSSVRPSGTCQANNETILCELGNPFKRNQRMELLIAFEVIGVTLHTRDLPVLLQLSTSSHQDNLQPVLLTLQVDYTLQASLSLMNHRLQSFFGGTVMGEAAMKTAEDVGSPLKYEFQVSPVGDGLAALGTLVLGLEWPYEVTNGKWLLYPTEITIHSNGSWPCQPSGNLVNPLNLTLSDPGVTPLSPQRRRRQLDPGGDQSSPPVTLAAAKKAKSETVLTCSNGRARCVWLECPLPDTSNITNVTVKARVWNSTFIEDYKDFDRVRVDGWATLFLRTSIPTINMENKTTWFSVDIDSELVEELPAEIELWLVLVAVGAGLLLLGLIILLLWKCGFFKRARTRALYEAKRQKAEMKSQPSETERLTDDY

β1 levels in podocytes (PAN 30 μg/mL, pyr 1 μM cotreatment, 48 h (FIG. 16)): preserved | active β1 levels in healthy cells (healthy cells, no PAN): significant increase in active β1 levels
SMILES: O=S(=O)(NCC1CC1)c1ccc(Nc2nccc(N3CCCc4cc(O)ccc43)n2)cc1 [Pyrintegrin]
active β1 levels in podocytes (antibody 9EG7) (PAN cotreatment): significant loss of active β1 levels in podocytes but not on treatment with pyrintegrin
